We go through 1 molecule from patent US4749710A, “Immunosuppressive agents” (priority 1985, dated 1988).

Assay [1] concerns IgM production by human lymphocytes. Briefly: Inhibition of IgM production by human lymphocytes in vitro (SAC activation, ELISA). Type of assay: cell-based. As to conditions: 8 days, vehicle control 2.49 ± 0.17. From the text:
(§1) General Test Description Humoral immunity comprises one of the two major arms of the immune system and generally is beneficial. However, a number of disease states are characterized by a hyperactive immune system responding to self tissue antigens. […] In these diseases it would be important to suppress the humoral immune system.
(§2) In the following studies we used established methods to examine the effect of Vitamin D derivatives on the in vitro production of immunoglobulin (Ig) by human peripheral blood leukocytes (PBL) following polyclonal activation. Immunoglobulin was induced from PBL by co-culturing the PBL with the polyclonal B cell activator Staphylococcus aureus strain Cowan I (SAC) for a period of 8 days. The quantity of Ig produced in the culture supernatants was determined by using an enzyme linked immunosorbent assay (ELISA). The effect of Vitamin D derivatives was determined by comparing the amount of antibody produced in cultures containing Vitamin D derivatives to those cultures containing an appropriate concentration of vehicle (ethanol).
(§3) Solutions of vitamin D derivatives. Stock solutions of vitamin D derivatives were prepared as described previously for the murine CTL experiments.
(§4) INDUCTION OF HUMAN IG SECRETION Human peripheral blood mononuclear leukocytes were prepared from one day old buffy coat preparations obtained from the American Red Cross (Lansing, MI). […] Twenty five ml of this preparation were overlayed onto 25 ml of Ficoll-Paque contained in a 50 ml polypropylene centrifuge tube. After centrifugation at 400×g at 15° C. for 40 min, the cells at the interface of the medium and Ficoll were removed and washed 3 times in 50 ml RPMI medium and centrifuged at 300×g for 10 minutes. After the final centrifugation,the cell pellet was suspended in RPMI medium containing 20% fetal bovine serum (FBS) and 80 μg/ml gentamicin. The number of viable cells was determined by trypan blue exclusion and were then suspended to 2.5×10^6 viable cells per ml in RPMI containing 20% FBS and gentamicin. Human PBL were induced to secrete Ig as follows. One hundred microliters of the PBL suspension and an additional 100 μl of a 1:20,000 (v/v) preparation of SAC suspended in RPMI containing 1% FBS were added to each well of a 96-well microtiter plate. Selected wells were also set up without the addition of SAC to serve as negative controls (spontaneous Ig secretion). Each well then received 20 μl of either the appropriate dilution of Vitamin D derivative in RPMI with 1% ethanol or RPMI with 1% ethanol (vehicle control). The vitamin D derivatives were tested at final concentrations of 10^-5, 10^-6, 10^-7, 10^-8, 10^-9, and 10^-10 M and in all cases the vehicle (ethanol) concentration was 0.1%. All treatments were performed in triplicate. […] The samples were then either assayed immediately or stored at -20° C. until assayed by the ELISA technique described below.
(§5) QUANTITATION OF SECRETED IG (ELISA ASSAY) ELISA plates were prepared for quantitating human IgG and IgM levels in culture supernatants as follows. Affinity purified sheep anti-human IgG and goat anti-human IgM (Cappel, Cochranville, PA) were diluted 1:250 and 1:400 respectively, in carbonate coating buffer (0.05M sodium bicarbonate, 0.05M sodium carbonate, 0.15M sodium chloride). One hundred and fifty microliters of the antibody preparation were added to each well of a 96 well ELISA plate (EIA, Costar). The plates were sealed and incubated overnight at 4° C. and on the following day were washed 3 times with distilled water. Each well then received 350 μl of Dulbecco's PBS containing 1 mg/ml bovine serum albumin (BSA) and 0.5 mg/ml sodium azide. The plates were allowed to incubate for 1 hour at 37° C. and then washed 3 times with Dulbecco's PBS containing 0.5% stock Tween 20 (PBS-Tween) followed by 2 washes with distilled water. The plates were air dried and stored desiccated under a vacuum at 4° C. until use.
Background: ELISA stands for enzyme-linked immunosorbent assay.

In assay [2] the test system is IgG production by human lymphocytes. Kind of assay: Inhibition of IgG production by human lymphocytes in vitro (SAC activation, ELISA). Type of assay: cell-based. As to conditions: 8 days, vehicle control 0.78 ± 0.09.
From the text: as §1, §2, §3, §4, §5

The structures appear in SMILES notation.

`C=C1/C(=C\C=C2/CCC[C@]3(C)[C@@H]([C@H](C)CCCC(C)(C)O)CC[C@@H]23)C[C@@H](O)C[C@@H]1F` [1α-F--25-OH--D3, 1α-Fluoro-25-hydroxycholecalciferol]: the “IgM μg per culture (x ± S.E.M.)” value in assay [1] (1 × 10^-6 molar) is reported as “undetectable”; in assay [1] (1 × 10^-7 molar), 0.38 ± 0.30 μg per culture; in assay [1] (1 × 10^-8 molar), 1.83 ± 0.29 μg per culture; in assay [1] (1 × 10^-9 molar), 3.10 ± 0.10 μg per culture; in assay [1] (1 × 10^-10 molar), 4.48 ± 0.75 μg per culture. In addition, the “IgG μg per culture (x ± S.E.M.)” value in assay [2] (1 × 10^-6 molar) is “undetectable”; in assay [2] (1 × 10^-7 molar), 0.08 ± 0.05 μg per culture; in assay [2] (1 × 10^-8 molar), 0.14 ± 0.05 μg per culture; in assay [2] (1 × 10^-9 molar), 0.18 ± 0.001 μg per culture; in assay [2] (1 × 10^-10 molar), 0.45 ± 0.11 μg per culture.
